Experimental data from patent US20250230161A1, “POLYCYCLIC CAP-DEPENDENT ENDONUCLEASE INHIBITORS FOR TREATING OR PREVENTING INFLUENZA” (Merck Sharp & Dohme LLC, priority 2021, published 2025).

Test system: FLU A (PR/8/34)
Experiment: Flu A Neuraminidase Antiviral Assay
Format: cell-based
Conditions: MDCK cells infected with FLU A (PR/8/34), 48 h incubation, NA activity by MUNANA fluorescence

| SMILES | EC50 [nM] |
| --- | --- |
| O=C1c2c(O)c(=O)ccn2N2CN1CCCCC2c1ccccc1 (centres unmarked) [Compound 1] | 143 |
| O=C1c2c(O)c(=O)ccn2N2CN1CCCCC2c1ccccc1Cl (centres unmarked) [Compound 2] | 72 |
| O=C1c2c(O)c(=O)ccn2N2CN1CCCCC2c1cccc(Cl)c1 (centres unmarked) [Compound 3] | 133 |
| O=C1c2c(O)c(=O)ccn2N2CN1CCCCC2c1ccc(Cl)cc1 (centres unmarked) [Compound 4] | 1690 |
| O=C1c2c(O)c(=O)ccn2N2CN1CCCCC2c1ccccc1Br (centres unmarked) [Compound 5] | 92 |
| O=C1c2c(O)c(=O)ccn2N2CN1CC(F)CCC2c1ccccc1 (centres unmarked) [Compound 9] | 578 |
| O=C1c2c(O)c(=O)ccn2N2CN1CCCCC2c1cccc2ccccc12 (centres unmarked) [Compound 10] | 577 |
| O=C1c2c(O)c(=O)ccn2N2CN1CCCCC2c1cccc2ccc(F)cc12 (centres unmarked) [Compound 11] | 966 |
| O=C1c2c(O)c(=O)ccn2N2CN1CCCCC2c1ccc2ccccc2c1 (centres unmarked) [Compound 12] | 6290 |
| CC1(c2ccccc2)CCCCN2CN1n1ccc(=O)c(O)c1C2=O (centres unmarked) [Compound 13] | 310 |
| O=C1c2c(O)c(=O)ccn2N2CN1CCCCCC2c1ccccc1 (centres unmarked) [Compound 14] | 927 |
| CC1CCCC(c2ccccc2)N2CN1C(=O)c1c(O)c(=O)ccn12 (centres unmarked) [Compound 15] | 460 |
| O=C1c2c(O)c(=O)ccn2N2CN1C(C1CC1)CCCC2c1ccccc1 (centres unmarked) [Compound 16] | 164 |
| O=C1c2c(O)c(=O)ccn2N2CN1C/C=C\CC2c1ccccc1 (centres unmarked) [Compound 17] | 193 |
| O=C1c2c(O)c(=O)ccn2N2CN1C/C=C\CC2c1cccc2ccc(F)cc12 (centres unmarked) [Compound 18] | 1460 |
| CC1/C=C\CC(c2ccccc2)N2CN1C(=O)c1c(O)c(=O)ccn12 (centres unmarked) [Compound 19] | 229 |
| O=C1c2c(O)c(=O)ccn2N2CN1C(C1CC1)/C=C\CC2c1ccccc1 (centres unmarked) [Compound 20] | 171 |
| CC1N2CCCCC(c3ccccc3)N1n1ccc(=O)c(O)c1C2=O (centres unmarked) [Compound 21] | 98 |
| CC1N2CCCCCC(c3ccccc3)N1n1ccc(=O)c(O)c1C2=O (centres unmarked) [Compound 22] | 228 |
| CC1CCN2CN(C(c3ccccc3)C1)n1ccc(=O)c(O)c1C2=O (centres unmarked) [Compound 23] | 4410 |
